# Reference: article PMC7229161 (Scientific Reports, 2020)
# “Also recorded” adds a separate entry of the source.
# Legend:
# rTRPV1 = rTRPV1 (Rattus norvegicus, UniProt O35433); assay type: cell-based
# cTRPV1-A578E = cTRPV1-A578E (Gallus gallus, UniProt Q8QFN9, A578E); assay: cell-based; set-up: species or system chicken (Gallus gallus)
# 3XHA-cTRPV1-A578K = assay type: cell-based, chicken (Gallus gallus)
# cTRPV1 = cTRPV1 (Gallus gallus, UniProt Q8QFN9); assay: cell-based; assay type: cell-based, chicken (Gallus gallus)
# [1] = system: Ch15 rat-chicken TRPV1 chimera (rat C-terminus, N687-K838); assay type: cell-based
# [2] = system: Ch6 rat-chicken TRPV1 chimera (rat N-terminus, M1-R428); assay type: cell-based
# 3XHA-cTRPV1-A578P = assay type: cell-based, chicken (Gallus gallus)
# 3XHA-cTRPV1-A578Q = assay type: cell-based, chicken (Gallus gallus)
# rTRPV1-E570K = target: T1, rTRPV1-E570K (Rattus norvegicus, UniProt O35433, E570K); assay type: cell-based
# T1 construct: expressed in transfected cells; host or cells: HEK293T
# rTRPV1-E570Q = target: T2, rTRPV1-E570Q (Rattus norvegicus, UniProt O35433, E570Q); assay type: cell-based
# T2 construct: expressed in transfected cells; host or cells: HEK293T
# rTRPV1-E570P = target: T3, rTRPV1-E570P (Rattus norvegicus, UniProt O35433, E570P); assay type: cell-based
# T3 construct: expressed in transfected cells; host or cells: HEK293T
# rTRPV1-E570A = target: T4, rTRPV1-E570A (Rattus norvegicus, UniProt O35433, E570A); assay type: cell-based
# T4 construct: expressed in transfected cells; host or cells: HEK293T
# T4 sequence (O35433 whole entry E570A): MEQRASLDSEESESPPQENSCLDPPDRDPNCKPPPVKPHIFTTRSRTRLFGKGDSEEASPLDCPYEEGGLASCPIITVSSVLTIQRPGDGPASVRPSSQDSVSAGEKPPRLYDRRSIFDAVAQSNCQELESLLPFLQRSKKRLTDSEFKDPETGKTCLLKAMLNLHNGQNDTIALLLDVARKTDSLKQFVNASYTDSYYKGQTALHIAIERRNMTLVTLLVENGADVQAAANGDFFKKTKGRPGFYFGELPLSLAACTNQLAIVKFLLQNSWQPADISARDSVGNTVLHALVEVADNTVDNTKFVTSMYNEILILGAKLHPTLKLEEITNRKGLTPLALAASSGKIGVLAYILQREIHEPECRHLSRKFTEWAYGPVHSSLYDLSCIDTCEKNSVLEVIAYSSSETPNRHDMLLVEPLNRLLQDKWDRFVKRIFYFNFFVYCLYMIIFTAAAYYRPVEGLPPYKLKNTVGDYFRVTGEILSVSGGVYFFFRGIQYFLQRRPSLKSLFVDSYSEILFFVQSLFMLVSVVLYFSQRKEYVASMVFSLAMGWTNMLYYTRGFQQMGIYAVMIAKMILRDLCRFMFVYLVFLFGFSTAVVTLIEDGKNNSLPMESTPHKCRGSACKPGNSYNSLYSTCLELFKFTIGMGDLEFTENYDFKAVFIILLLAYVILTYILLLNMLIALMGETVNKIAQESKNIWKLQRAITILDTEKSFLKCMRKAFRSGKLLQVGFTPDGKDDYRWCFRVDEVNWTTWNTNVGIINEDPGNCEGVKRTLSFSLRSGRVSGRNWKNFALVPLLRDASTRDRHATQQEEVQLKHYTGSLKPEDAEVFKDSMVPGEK
# Sequence of cTRPV1-A578E (Q8QFN9 1-843 A578E): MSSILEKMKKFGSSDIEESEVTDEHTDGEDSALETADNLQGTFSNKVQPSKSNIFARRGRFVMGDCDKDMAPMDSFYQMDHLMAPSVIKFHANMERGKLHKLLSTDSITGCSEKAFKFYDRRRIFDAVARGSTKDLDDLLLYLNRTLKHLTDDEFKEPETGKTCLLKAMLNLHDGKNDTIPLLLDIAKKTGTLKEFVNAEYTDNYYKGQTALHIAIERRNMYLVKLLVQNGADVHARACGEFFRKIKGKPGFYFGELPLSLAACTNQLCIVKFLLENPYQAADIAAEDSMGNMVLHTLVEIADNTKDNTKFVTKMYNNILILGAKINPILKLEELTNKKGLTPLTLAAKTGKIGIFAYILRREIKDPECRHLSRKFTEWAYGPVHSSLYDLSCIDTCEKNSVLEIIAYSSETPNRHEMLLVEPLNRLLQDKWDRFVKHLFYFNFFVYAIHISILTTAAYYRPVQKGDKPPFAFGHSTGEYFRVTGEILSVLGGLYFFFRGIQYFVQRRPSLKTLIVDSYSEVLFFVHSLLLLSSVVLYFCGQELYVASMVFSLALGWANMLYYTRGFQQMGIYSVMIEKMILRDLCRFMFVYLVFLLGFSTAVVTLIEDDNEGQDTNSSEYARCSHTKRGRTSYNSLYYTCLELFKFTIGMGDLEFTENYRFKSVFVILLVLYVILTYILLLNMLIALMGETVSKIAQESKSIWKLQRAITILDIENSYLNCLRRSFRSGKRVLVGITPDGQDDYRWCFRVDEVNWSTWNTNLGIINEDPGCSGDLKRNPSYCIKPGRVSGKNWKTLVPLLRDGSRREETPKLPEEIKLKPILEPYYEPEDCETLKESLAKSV
# Sequence of cTRPV1 (Q8QFN9 1-843): as the sequence (Q8QFN9 1-843 A578E) above, with E578A counted along it
# Sequence of rTRPV1 (O35433 whole entry): as the sequence (O35433 whole entry E570A) above, with A570E counted along it
# T2 sequence (O35433 whole entry E570Q): as the sequence (O35433 whole entry E570A) above, with A570Q counted along it
# T1 sequence (O35433 whole entry E570K): as the sequence (O35433 whole entry E570A) above, with A570K counted along it
# T3 sequence (O35433 whole entry E570P): as the sequence (O35433 whole entry E570A) above, with A570P counted along it
compound,measurement,setting,value
"COc1cc(CNC(=O)CCCC/C=C/C(C)C)ccc1OCCN [Cap-EA, O-aminoethyl capsaicin]",capsaicin analog-induced activation,rTRPV1,strong response
same,capsaicin analog-induced activation,cTRPV1-A578E,successfully activated; also recorded: strongly activated
same,capsaicin analog-induced activation,3XHA-cTRPV1-A578K,partially activated
"CNCCOc1ccc(CNC(=O)CCCC/C=C/C(C)C)cc1OC [Cap-EMA, O-(N-methylaminoethyl) capsaicin]",capsaicin analog-induced activation,rTRPV1,strong response
same,capsaicin analog-induced activation,3XHA-cTRPV1-A578K,slightly activated
COc1cc(CNC(=O)CCCC/C=C/C(C)C)ccc1O [capsaicin],channel activation (Ca2+ signal),rTRPV1,activated rTRPV1
same,EC50,cTRPV1,> 30 µM
same,channel activation (Ca2+ signal),cTRPV1,the response was relatively weak for cTRPV1; also recorded: limited response
same,capsaicin sensitivity of chimera,[1],no capsaicin sensitivity
same,capsaicin sensitivity of chimera vs cTRPV1,[2],limited improvement in capsaicin sensitivity
same,EC50,cTRPV1-A578E,7.2 ± 9.4 µM
same,"increase of response to 100 μM capsaicin, A578E mutant vs wildtype cTRPV1",cTRPV1-A578E,5 fold
same,vanilloid responsiveness (30 μM capsaicin-induced activation normalized to cocktail-induced maximum channel opening),cTRPV1-A578E,greatest capsaicin sensitivity
same,vanilloid responsiveness (30 μM capsaicin-induced activation normalized to cocktail-induced maximum channel opening),3XHA-cTRPV1-A578K,greatest capsaicin sensitivity
same,vanilloid responsiveness (30 μM capsaicin-induced activation normalized to cocktail-induced maximum channel opening),3XHA-cTRPV1-A578P,greatest capsaicin sensitivity
same,vanilloid responsiveness (30 μM capsaicin-induced activation normalized to cocktail-induced maximum channel opening),3XHA-cTRPV1-A578Q,greatest capsaicin sensitivity
same,responsiveness to 300 nM capsaicin normalized to protein expression level,rTRPV1-E570K,"exhibited responsiveness to 300 nM capsaicin, albeit much weaker than wildtype"
same,responsiveness to 300 nM capsaicin normalized to protein expression level,rTRPV1-E570Q,"exhibited responsiveness to 300 nM capsaicin, albeit much weaker than wildtype"
same,responsiveness to 300 nM capsaicin normalized to protein expression level,rTRPV1-E570P,reduced capsaicin sensitivity
same,capsaicin-induced responses vs wildtype rTRPV1,rTRPV1-E570A,drastically decreased
COc1cc(CCC(C)=O)ccc1O [zingerone],Zingerone-induced activity relative to capsaicin,rTRPV1,35.9 ± 5.0%
same,zingerone-induced activation,rTRPV1,activated rTRPV1
same,zingerone-induced activation,cTRPV1-A578E,did not activate
same,zingerone-induced activation,3XHA-cTRPV1-A578K,did not activate
same,zingerone-induced activation,3XHA-cTRPV1-A578P,did not activate
same,zingerone-induced activation,3XHA-cTRPV1-A578Q,did not activate
ruthenium red,block of cocktail-elicited extracellular Ca2+ entry,rTRPV1,could be blocked
same,block of cocktail-elicited ion flow,cTRPV1,sufficient to block most ions
